Data as given in the supplement of paper PMC9334596.
Structures can show the parent of a compound that is named as a salt.

System: mPer2Luc MEF
Assay: PER2::LUC luminescence relative to vehicle control (fold of vehicle); higher = higher PER2::LUC reporter signal
In short: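 In embryonic fibroblasts from PER2::LUC knock-in reporter mice grown in DMEM with 10% FBS at 37 °C and 5% CO2, compounds were applied at six threefold-spaced concentrations from 10 μM down to 0.04 μM. Readings were taken 24 h and 30 h after compound addition. Reported values are PER2::LUC luminescence as fold of vehicle-treated wells.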

[1] = time after treatment: 24-hour, concentration: 0.04μM
[2] = time after treatment: 24-hour, concentration: 0.37μM
[3] = time after treatment: 24-hour, concentration: 3.33μM
[4] = time after treatment: 24-hour, concentration: 10μM
[5] = time after treatment: 30-hour, concentration: 0.04μM
[6] = time after treatment: 30-hour, concentration: 0.37μM
[7] = time after treatment: 30-hour, concentration: 3.33μM
[8] = time after treatment: 30-hour, concentration: 10μM

| SMILES | PER2::LUC luminescence [1] | PER2::LUC luminescence [2] | PER2::LUC luminescence [3] | PER2::LUC luminescence [4] | PER2::LUC luminescence [5] | PER2::LUC luminescence [6] | PER2::LUC luminescence [7] | PER2::LUC luminescence [8] |
| --- | --- | --- | --- | --- | --- | --- | --- | --- |
| COc1cc(C(=O)N2CCC(N3CCN(C)CC3)CC2)ccc1Nc1ncc2c(n1)N(C)c1ccccc1C(=O)N2C [LRRK2-IN-1] | 0.815 | 0.751 | 0.337 | 0.1 | 0.817 | 0.716 | 0.351 | 0.098 |
| Cn1cc(/C=C/C(=O)c2cccc(F)c2)cc1/C=C/C(=O)NO [MC1568] | 0.933 | 0.956 | 0.979 | 1.34 | 0.907 | 0.894 | 0.843 | 1.04 |
| Cc1cccc(C#Cc2ccccc2)n1 [MPEP Hydrochloride] | 1.11 | 1.19 | 1.33 | 1.39 | 1.22 | 1.41 | 1.57 | 1.73 |
| O=C(NC1CC1)c1cc(-c2cccs2)on1 [N-cyclopropyl-5-(thiophen-2-yl)-1,2-oxazole-3-carboxamide] | 1.3 | 1.33 | 1.66 | 1.76 | 1.37 | 1.44 | 1.79 | 1.99 |
| CCOC(=O)c1ccc(N(C)c2csc(-c3ccccc3)n2)cc1 [Neuropathiazol] | 0.939 | 1 | 1.04 | 1.1 | 0.913 | 0.937 | 1 | 1.08 |
| O=C(Nc1ccc(OC(F)(F)F)cc1)c1sccc1NCc1ccnc2ccccc12 [OSI-930] | 1.11 | 1.04 | 1.37 | 1.43 | 1.14 | 1.11 | 1.57 | 1.91 |
| CCOc1cc2ncc(C#N)c(Nc3ccc(F)c(Cl)c3)c2cc1NC(=O)/C=C/CN(C)C [Pelitinib (EKB-569)] | 0.891 | 0.933 | 0.78 | 0.334 | 0.836 | 0.815 | 0.618 | 0.227 |
| O=C(c1ccc(OCCN2CCCCC2)cc1)c1c(-c2ccc(O)cc2)sc2cc(O)ccc12 [Raloxifene HCl] | 0.941 | 0.955 | 0.814 | 0.287 | 1 | 0.996 | 0.896 | 0.512 |
